# Experimental data reported in patent US7122326B2 (Universite Louis Pasteur, priority 2001, dated 2006).
# Entries after “also recorded” stand apart in the source; their conditions may differ. Where two headings read alike, the source gives them in different places.
# Assays:
# [1] = system: xanthurenic acid binding site(s); assay: [3H]-XA binding to synaptic membranes, without ions; design: species or system rat; conditions: for [^3H]-XA binding displacement, screening: screening at 200 μM concentration
# XA transport system = assay: XA transport in differentiated NCB-20 cells; assay type: cell-based
# Experimental: The cell culture was prepared by using a culture dish of NCB-20 cells at 80% confluence. The culture medium was removed and replaced with 10 ml of DMEM supplemented with 10% FCS. Cells were then detached and suspended by repeated passage of the medium through a 2 mm gauge needle. Cells were then counted in a hemocytometer. The final suspension was adjusted to a cell density of 3.10^4 cells/ml in DMEM medium supplemented with 10% FCS and 1 mM cAMP. Petri dishes were seeded with 2 ml of this suspension and incubated at 37° C. in a moisture-saturated CO2 atmosphere. Cells were used four days after inoculation.
# The culture medium of 4-day NCB-20 cell cultures differentiated in cAMP was replaced by one of the buffer solutions described hereinabove (Krebs with or without Na^+, to respectively evaluate Na^+-dependent active transport and passive transport, which occurs mainly through diffusion) according to the type of experiment planned. Culture dishes were placed in a water bath at 37° C. for 10 minutes. The buffer was then replaced by the same buffer solution containing [^3H]-XA and XA at concentrations ranging from […]. [^3H]-XA was present at very low concentration and served only as a tracer of the cold (non-radiolabelled) XA. After 1 minute of incubation, the solutions were aspirated and the cells washed three times for 10 seconds with 1 ml of the same buffer (Krebs with or without Na^+), kept on ice. Active transport requires energy (ATP) and is markedly slowed at temperatures below 37° C. The washed cell layer was frozen in dishes then, the next day, distilled water was added to obtain a solution of cellular debris containing the intracellular radiolabel ([^3H]-XA). Freezing facilitated homogenization by repeated passage of the solution through a pipette. A 900 μl aliquot was added to scintillation fluid (Rotiszint®, 4 ml). The remainder of the solution was sampled to assay protein by the BCA method (Uptima). The radioactivity measured in the scintillation counter was converted by means of a suitable calibration curve into picomoles of XA taken up by the cells per mg of protein.
# For each incubation time, transport was measured on nine dishes of NCB-20 cells with Na^+ and without Na^+. Ten different time points were studied: 0-10-30 seconds and 1, 2, 3, 5, 8, 10, 12 minutes. Four different experiments were carried out.
# For each XA concentration, XA transport was measured on nine dishes of NCB-20 cells with Na^+ and nine dishes without Na^+. Seven different concentrations were tested: 1-5-12.5-25-50-100-200 μM. Four independent experiments were carried out.
# Four milliliters of scintillator were added to the tubes containing 900 μl of the cell suspension obtained. The control tube contained 900 μl of doubly-distilled water, and the tubes used to measure specific activity contained 10 μl of the radioactive solutions used as reagent during the experiment and 890 μl of doubly-distilled water. The tubes were closed, vortexed and left overnight at 4° C. before being counted in the scintillation counter. This count measures intracellular radioactivity which is directly proportional to the quantity of XA that entered the cell through passive or active transport. To calculate the amount of active transport, passive transport (Krebs without Na^+) is simply subtracted from total transport (Krebs with Na^+).
# Other endogenous molecules which might be transported by the XA transporter were tested. […] The results are shown in the histogram in FIG. 34 as the percentage entering the cells relative to transport in the presence of radiolabelled XA alone (=100%).
# dopaminergic neurons = assay: Residual dopamine content after 6-OHDA lesion; assay type: in vivo, rat
# XA release in the PFC = assay: XA release in prefrontal cortex, in vivo microdialysis; design: species or system rat
# Experimental: Male Wistar rats weighing 350–400 g were used for the experiments. Animals were housed individually in plastic cages with a light/dark cycle of 7 a.m./7 p.m. and 7 p.m./7 a.m. Animals had access to food and water ad libitum. Animal experiments were conducted in strict accordance with the requirements of the European Directive of 24 Nov. 1986 (86/609/EEC).
# The experiments were carried out using an L-shaped cannula with a 4 mm tip. A polycarbonate-polyether dialysis membrane (500 μm) with a 20 Kda cutoff was used. The dialysis membrane was inserted in the prefrontal cortex (PFC) while one of the tips of the bipolar stimulation electrode was implanted in the PFC and the other in the VTA. The procedure was performed under ketamine anesthesia.
# The experiments were carried out in conscious animals, 24 to 72 hours after the surgery. The perfusion medium had the following composition: 147 mM NaCl, 1.2 mM CaCl2, 1.2 mM MgCl2, and 4.0 mM KCl, pH 6.5. In the case of stimulations at high potassium concentrations, sodium ion concentrations were lowered to the same value. In the case of stimulations in the absence of calcium ions, 2.0 mM EGTA was added to the dialysis medium. Dialysates were collected at a rate of 2 μl/min, every 5 minutes, and immediately stored in liquid nitrogen up to analysis.
# These two compounds were quantitatively determined by HPLC chromatography with electrochemical detection. The chromatographic system consisted of a 25 cm×4.6 mm Hypersyl C18 column, maintained at constant temperature. The mobile phase was 0.05 M NaH2PO4 buffer+0.1 mM EDTA and 6% methanol. Peaks were identified by comparison with the retention times measured on calibration standard solutions.
# The VTA was stimulated for a period of 10 minutes, with bursts of thirty 0.5-msec pulses for 100 millisec, intensity 100 or 200 μA and at a frequency of 25 Hz.
# rat = assay: Rotations in rats with unilateral 6-OHDA lesions; assay type: in vivo; conditions: 6-OHDA-lesioned rats, four weeks after lesion; apomorphine s.c. (0.1 and 1.0 mg/kg)
# [2] = target: xanthurenic acid binding site(s); assay: Effect of ions on xanthurenic acid binding to synaptic membranes; design: species or system rat; conditions: read-out: EC50 of ions on xanthurenic acid binding
# [3] = target: xanthurenic acid binding site(s); assay: [3H]-XA binding to synaptic membranes in the presence of copper ions; design: species or system rat; conditions: read-out: EC50 (50% effective concentration) on XA binding; Tris maleate pH 6.5, room temperature, 400 nM [^3H]-XA (+20 μM xanthurenic acid) (FIG. 17)
# [4] = unilateral 6-OHDA lesion of VTA and SNc, ±SEM (n=3)
compound,measurement,setting,value
"Nc1c(O)cccc1C(=O)CC(N)C(=O)O (racemic) [3OH-D,L-kynurenin]","[^3H]-XA binding displacement, screening",[1],None of these compounds caused significant displacement
O=CC[C@@H](O)[C@H](O)[C@H](O)CO [2-deoxyglucose],decrease in XA transport,XA transport system; cellular energy production blocked (FIG. 34),~50%
Nc1c(O)cccc1C(=O)O [3-hydroxyanthranilic acid],"[^3H]-XA binding displacement, screening",[1],None of these compounds caused significant displacement
N[C@@H](Cc1c[nH]c2ccc(O)cc12)C(=O)O [5-hydroxy-L-tryptophan],"[^3H]-XA binding displacement, screening",[1],None of these compounds caused significant displacement
"Br.NCCc1cc(O)c(O)cc1O [6-OHDA, 6-hydroxydopamine hydrobromide]","residual dopamine content, damaged VTA —SNc",dopaminergic neurons; [4],32±31 pmoles/g of wet tissue
same,"residual dopamine content, damaged striatum",dopaminergic neurons; [4],261±123 pmoles/g of wet tissue
same,"change of dopamine content, damaged versus intact striatum","dopaminergic neurons; unilateral 6-OHDA lesion, p=0.0033",−98%
same,"change of dopamine content, damaged versus intact VTA —SNc","dopaminergic neurons; unilateral 6-OHDA lesion, p=0.0157",−95%
[Cl-].[K+] [KCl],"XA release in the PFC extracellular medium, % of the baseline value","XA release in the PFC; 100 mM KCl in the dialysis probe for 5 minutes, after 40 minutes",250%
Nc1ccccc1C(=O)C[C@H](N)C(=O)O [L-kynurenin],"[^3H]-XA binding displacement, screening",[1],None of these compounds caused significant displacement
N[C@@H](Cc1c[nH]c2ccccc12)C(=O)O [L-tryptophan],inhibition of cellular transport of XA,XA transport system,good inhibitors; also recorded: inhibit this transport
N[C@@H](Cc1ccc(O)cc1)C(=O)O [L-tyrosine],inhibition of cellular transport of XA,XA transport system; NCB-20 cells (FIG. 34),good inhibitors
same,inhibition of cellular transport of XA,"XA transport system; NCB-20 cells (FIG. 34), listed as tyrosine",inhibit this transport
Nc1ncnc2nc[nH]c12 [adenine],affinity for the xanthurenic acid site / inhibition of tritiated XA binding,[1],showed significant affinity for the xanthurenic acid site and inhibited the binding of tritiated XA
Nc1ncnc2c1ncn2[C@@H]1O[C@H](COP(=O)(O)OP(=O)(O)O)[C@@H](O)[C@H]1O [adenosine diphosphate],affinity for the xanthurenic acid site / inhibition of tritiated XA binding,[1],showed significant affinity for the xanthurenic acid site and inhibited the binding of tritiated XA
Nc1ncnc2c1ncn2[C@@H]1O[C@H](COP(=O)(O)OP(=O)(O)OP(=O)(O)O)[C@@H](O)[C@H]1O [adenosine triphosphate],affinity for the xanthurenic acid site / inhibition of tritiated XA binding,[1],showed significant affinity for the xanthurenic acid site and inhibited the binding of tritiated XA
Nc1ncnc2c1ncn2[C@@H]1O[C@H](CO)[C@@H](O)[C@H]1O [adenosine],affinity for the xanthurenic acid site / inhibition of tritiated XA binding,[1],showed significant affinity for the xanthurenic acid site and inhibited the binding of tritiated XA
CN1CCc2cccc3c2[C@H]1Cc1ccc(O)c(O)c1-3 [apomorphine],number of controlateral rotations,rat,130±45 turns/15 minutes
"[Cl][Cu][Cl] [copper ions, CuCl2]",EC50,"[2]; 50 mM Tris maleate pH 6.5, 0° C., 200 nM [^3H]-XA (FIG. 14)",~100 µM
same,EC50,[3],33.4 µM
O=C(O)c1cc(=O)c2ccccc2[nH]1 [kynurenic acid],"[^3H]-XA binding displacement, screening",[1],no displacement of [^3H]-XA from its binding site(s) but rather a potentiation of this binding
same,inhibition of cellular transport of XA,XA transport system; NCB-20 cells (FIG. 34),good inhibitors
O=C(O)c1ccccn1 [picolinic acid],"[^3H]-XA binding displacement, screening",[1],None of these compounds caused significant displacement
NC1=N[C@H](O)[C@H]2[C@H]3O[C@]4(O)O[C@@H]([C@@H](O)[C@@]2(N1)[C@@H]4O)[C@]3(O)CO [tetrodotoxin],XA release in PFC induced by electrical stimulation of the VTA,"XA release in the PFC; rat, in vivo",completely blocked
"[Cl-].[Cl-].[Zn+2] [zinc ions, ZnCl2]",EC50,[2]; pH 6.5,~500 µM
same,potentiation of XA transport,XA transport system; ions present in the medium (FIG. 34),highly significant potentiation
veratrine,"XA release in the PFC, % of baseline","XA release in the PFC; 50 μM in the probe for 20 minutes, after 20 minutes",approximately 600%
